From patent US20060029555A1, “Compositions and methods for prevention of photoaging” (priority 2002, published 2006)

Tested on: human elastin promoter
Assay: Transgenic mouse model of photoaging: human elastin promoter/CAT reporter activity after solar simulating radiation
Type: in vivo, transgenic mice
Conditions: topical application to backs about fifteen minutes before 20 MEDs of SSR, three consecutive days; CAT activity 24 hours after third phototreatment, compared with vehicle alone
Method: These mice express human elastin promoter activity in a tissue-specific and developmentally regulated manner. […] In addition, quantitative data can be obtained after only a single exposure to ultraviolet radiation. […] The transgenic mouse is then exposed to solar radiation and human elastin promoter activity in the mouse is determined.
Approximately fifteen minutes after topical application, the mice are exposed to 20 human minimal erythema doses (MEDs) of solar simulating radiation (SSR). […] This procedure is repeated over three consecutive days.
Mice are then sacrificed and skin harvested for determination of CAT activity 24 hours after the third phototreatment. […]
To measure the expression of the human elastin promoter/CAT reporter gene construct in the skin of transgenic mice and in fibroblast cultures established from these animals, CAT activity is determined. […] The homogenates are centrifuged at 10,000 ×g for 15 minutes at 4° C. and the protein concentration in the supernatant determined by a commercial protein assay kit (Bio-Rad Laboratories, Richmond, Calif.). […] The acetylated and non-acetylated forms of radioactive chloramphenicol are separated by thin-layer chromatography and CAT activity is determined by the radioactivity in the acetylated forms as a percent of the total radioactivity in each sample.

Cn1c(=O)c2c(ncn2C)n(C)c1=O [caffeine]
protection against photoaging and other sun-damage (human elastin promoter activity, CAT activity in skin): provides protection against photoaging and other sun-damage such as sunburn
